Test results as given in the NIST ThermoML archive (doi:10.1016/j.jct.2013.05.037).

Legend:
[1] = mn = molality of the nth substance listed, in mol/kg; conditions: for surface tension liquid-gas: Pendant drop shape; for viscosity / speed of sound / mass density: 101 kPa, Liquid; for viscosity: Capillary tube (Ostwald / Ubbelohde) method; for speed of sound: Sing-around technique in a fixed-path interferometer; for mass density: Vibrating tube method
[2] = for surface tension liquid-gas: Pendant drop shape; for viscosity / mass density: 101.33 kPa, Liquid; for viscosity: Capillary tube (Ostwald / Ubbelohde) method; for mass density: Vibrating tube method

CCCCCCCCCCCCCCCC[n+]1ccccc1.[Cl-] [cetylpyridinium chloride] + O
[1], m1 = 0.002
Conditions | mass density [kg/m3] | speed of sound [m/s] | surface tension liquid-gas [mN/m] | viscosity [mPa·s]
293.15 K | 998.567 | 1483.1 | 41.75 | 1.004
298.15 K | 997.407 | 1497.2 | 41.6 | 0.9033
303.15 K | 996.012 | 1509.4 | 41.57 | 0.8137
308.15 K | 994.387 | 1519.8 | 41.35 | 0.7557

CCCCCCCC[N+](C)(CCCCCCCC)CCCCCCCC.[Cl-] [N-methyl-N,N-dioctyl-1-octanaminium chloride] + O
[1], m1 = 0.002
Conditions | mass density [kg/m3] | speed of sound [m/s] | surface tension liquid-gas [mN/m] | viscosity [mPa·s]
293.15 K | 998.54 | 1483.4 | 29.98 | 1.043
298.15 K | 997.375 | 1497.3 | 29.17 | 0.9291
303.15 K | 995.978 | 1510.7 | 28.93 | 0.8195
308.15 K | 994.348 | 1520.2 | 28.19 | 0.7465

NCC(=O)O [2-aminoacetic acid] + O
surface tension liquid-gas [mN/m], [1]
Conditions | m1 = 0.0502 | m1 = 0.0755 | m1 = 0.1007 | m1 = 0.1261 | m1 = 0.1514
293.15 K | 72.83 | 72.89 | 72.77 | 72.66 | 72.54
298.15 K | 72.09 | 72.14 | 72.03 | 71.88 | 71.79
303.15 K | 71.29 | 71.35 | 71.24 | 70.95 | 70.84
308.15 K | 70.49 | 70.55 | 70.6 | 70.66 | 70.71

O [water] + N[C@@H](Cc1ccccc1)C(=O)O
[1], m2 = 0
Conditions | surface tension liquid-gas [mN/m]
293.15 K | 72.75
298.15 K | 71.97
303.15 K | 71.18
308.15 K | 70.38

O [water]
[2]
Conditions | mass density [kg/m3] | surface tension liquid-gas [mN/m] | viscosity [mPa·s]
293.15 K | 998.587 | 72.75 | 1.002
298.15 K | 997.425 | 71.97 | 0.8937
303.15 K | 996.04 | 71.18 | 0.8001
308.15 K | 994.425 | 70.38 | 0.7225

N[C@@H](Cc1ccccc1)C(=O)O [L-phenylalanine] + O
surface tension liquid-gas [mN/m], [1]
Conditions | m1 = 0.0505 | m1 = 0.0759 | m1 = 0.1015 | m1 = 0.1273 | m1 = 0.1532
293.15 K | 72.38 | 71.94 | 70.99 | 70.56 | 70.14
298.15 K | 71.09 | 70.66 | 69.74 | 68.37 | 66.91
303.15 K | 70.83 | 69.91 | 68.53 | 66.61 | 64.53
308.15 K | 70.03 | 68.98 | 66.59 | 65.22 | 63.35

O [water] + NCC(=O)O
[1], m2 = 0
Conditions | surface tension liquid-gas [mN/m]
293.15 K | 72.75
298.15 K | 71.97
303.15 K | 71.18
308.15 K | 70.38

C[C@H](N)C(=O)O [(S)-2-aminopropanoic acid] + O
surface tension liquid-gas [mN/m], [1]
Conditions | m1 = 0.0503 | m1 = 0.0755 | m1 = 0.1009 | m1 = 0.1263 | m1 = 0.1518
293.15 K | 72.86 | 72.91 | 72.78 | 72.66 | 72.53
298.15 K | 72.07 | 72.12 | 72 | 71.88 | 71.76
303.15 K | 71.28 | 71.33 | 71.38 | 71.43 | 71.48
308.15 K | 70.46 | 70.53 | 70.58 | 70.63 | 70.68

O [water] + C[C@H](N)C(=O)O
[1], m2 = 0
Conditions | surface tension liquid-gas [mN/m]
293.15 K | 72.75
298.15 K | 71.97
303.15 K | 71.18
308.15 K | 70.38
